The subject of one data set is Kuramochi cells. Kind of data set: Cell proliferation inhibition experiment using Kuramochi cells. The format is cell-based. The settings on record: 144 h, cultured for 6 days, CellTiter-Glo. On the procedure: Kuramochi cells (derived from ovarian cancer) were obtained from JCRB (Japanese Collection of Research Bioresources) cell bank. Kuramochi cells were cultured in RPMI-1640 medium containing 10% fetal bovine serum and 1% penicillin/streptomycin under conditions of 37° C. and 5% CO2.
500 cells per well were seeded in a 384-well plate. One day after seeding, Examples 3, 7, 9, 10, 11, 20, 23 to 25, and 30 to 34 were added so that the final concentration of DMSO was 0.1%, and the cells were cultured for 6 days. After the culture was completed, the cell viability was measured using CellTiter-Glo Luminescent Cell Viability Assay (Promega, G7570).

The next data set has as its system RMGI cells. Kind of data set: Cell proliferation inhibition experiment using RMGI cells. The format is cell-based. The conditions noted are these: Homo sapiens, RMG-I, 144 h, cultured for 6 days, CellTiter-Glo. As for the experimental part:
RMGI cells (derived from ovarian cancer) were obtained from JCRB cell bank. RMGI cells were cultured in Ham's F12 medium containing 10% fetal bovine serum and 1% penicillin/streptomycin under conditions of 37° C. and 5% CO2.
200 cells per well were seeded in a 384-well plate. One day after seeding, Examples 3, 7, 9, 10, 11, 20, and 23 to 25 were added so that the final concentration of DMSO was 0.1%, and the cells were cultured for 6 days. After the culture was completed, the cell viability was measured using CellTiter-Glo Luminescent Cell Viability Assay (Promega, G7570).

The nature of another data set: Solubility test. The format is physicochemical. The settings on record: aqueous buffer, thermodynamic from solid, 5° C., overnight. As for the experimental part: The solubility was measured for Examples 7, 10, 20, 23, 24, and 30 to 34, Comparative Example 1, and Comparative Example 2. The test compound was added to 10 mmol/L glycine buffer (pH 2.0) and 10 mmol/L citrate buffer (pH 3.0), and the mixture was stored in a thermostatic chamber at 5° C. After standing overnight, the mixture was filtered through a membrane filter, and the concentration of the filtrate was measured by HPLC.

Data set [1] can be described thus: Membrane permeability test (PAMPA). The format is in vitro ADME. The procedure, abridged: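 Donor compartment held compound in system solution over a GIT Lipid-0 membrane, with sink buffer on the acceptor side; incubation 4 h at 37° C. Donor and acceptor concentrations were read by UV (190-500 nm), or by LC-MS for weakly absorbing compounds, and Pe (10^−6 cm/sec) was calculated.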

In the next data set the test system is G-401 xenograft. Nature of the data set: Drug efficacy evaluation by intravenous administration using G-401 xenograft mice model. The conditions noted are these: for antitumor effect (in words): G-401 xenograft model, intravenous administration; for T/C: intravenous (tail vein), 14 days. The format is in vivo. On the procedure:
G-401 cells (ATCC) were intradermally transplanted into 4-7-week-old BALB/cAnNCrj-nu/nu mice (CAnN.Cg-Foxn1/CrlCrlj, Jackson Laboratory Japan) at 5×10^5 cells/mouse. After confirming the engraftment of G-401 cells 10-40 days after transplantation, the test compound suspended in a solvent such as 10 mmol/L glycine buffer solution (pH 2.0) was administered via the tail vein at least once a week at a dose of 0.015-20 mg/kg. The tumor volume was measured over time from the start of administration, and the effect of tumor volume reduction by administration of the test compound was evaluated. The tumor volume can be calculated from the following equation using the minor axis and major axis of the tumor measured with an electronic caliper (Mitutoyo).
A control administration group administered with only a solvent such as 10 mmol/L glycine buffer solution (pH 2.0) and a test compound administration group were compared, and the antitumor effect was evaluated by calculating T/C from the following equation.

The next data set addresses hDAT (Homo sapiens (Human), UniProt Q01959). Nature of the data set: Dopamine receptor inhibitory activity evaluation (binding assay, CHO-S/hDAT membranes). The conditions noted are these: CHO-S/hDAT membrane preparation. On the procedure:
The binding evaluation assay was outsourced to Eurofins. Specifically, CHO-S/hDAT cells were homogenized in an incubation buffer consisting of 50 mmol/L Tris-HCl, pH 7.4, 100 mmol/L NaCl, 1 μmol/L Leupeptin, and 10 μmol/L PMSF. The membrane pellet obtained by centrifugation was resuspended in the incubation buffer to prepare a membrane preparation. The test compound (1-10 μmol/L DMSO solution), the membrane preparation, and 0.15 nmol/L […] were mixed and incubated at 4° C. for 180 minutes. The cell membrane-[^125I]RTI-55 complex was bound to a GF/B filter mat by vacuum filtration and washed with 50 mmol/L Tris-HCl, pH 7.4. The effect on the receptor was assessed by measuring radioactivity using a scintillation counter.

A further data set addresses hSERT (Homo sapiens (Human), UniProt P31645). Kind of data set: Serotonin receptor inhibitory activity evaluation (binding assay, HEK293/hSERT membranes). The conditions noted are these: HEK293/hSERT membrane preparation, [3H]Paroxetin. As for the experimental part:
The binding evaluation assay was outsourced to Eurofins. Specifically, HEK293/hSERT cells were homogenized in a buffer consisting of 100 mmol/L NaCl, 1 μmol/L Leupeptin, 10 μmol/L PMSF, and 50 mmol/L Tris-HCl (pH7.4). The membrane pellet obtained by centrifugation was resuspended in an incubation buffer consisting of 50 mmol/L Tris-HCl (pH 7.4), 120 mmol/L NaCl, and 5 mmol/L KCl to prepare a membrane preparation. The test compound (1-10 μmol/L DMSO solution), the membrane preparation, and 0.4 nmol/L [^3H]Paroxetin were mixed and incubated at 25° C. for 60 minutes. The cell membrane-[^3H]Paroxetin complex was bound to a GF/B filter mat by vacuum filtration and washed with 50 mmol/L Tris-HCl (pH 7.4). The effect on the receptor was assessed by measuring radioactivity using a scintillation counter.

The mark [2] stands for this setting: 10 mmol/L citrate buffer (pH 3.0), read-out: Solubility in pH 3.0 buffer.
[3] abbreviates: 10 mmol/L glycine buffer (pH 2.0), read-out: Solubility in pH 2.0 buffer.
The mark [4] stands for this setting: pH 5.0, 37° C., read-out: pH 5.0 Pe.
[5] abbreviates: pH 7.4, 37° C., read-out: pH 7.4 Pe.

Converted amounts (≈) assume the structure as drawn. Read-outs that look alike come from different tables or passages of the source.

Sequence of hSERT (P31645 whole entry): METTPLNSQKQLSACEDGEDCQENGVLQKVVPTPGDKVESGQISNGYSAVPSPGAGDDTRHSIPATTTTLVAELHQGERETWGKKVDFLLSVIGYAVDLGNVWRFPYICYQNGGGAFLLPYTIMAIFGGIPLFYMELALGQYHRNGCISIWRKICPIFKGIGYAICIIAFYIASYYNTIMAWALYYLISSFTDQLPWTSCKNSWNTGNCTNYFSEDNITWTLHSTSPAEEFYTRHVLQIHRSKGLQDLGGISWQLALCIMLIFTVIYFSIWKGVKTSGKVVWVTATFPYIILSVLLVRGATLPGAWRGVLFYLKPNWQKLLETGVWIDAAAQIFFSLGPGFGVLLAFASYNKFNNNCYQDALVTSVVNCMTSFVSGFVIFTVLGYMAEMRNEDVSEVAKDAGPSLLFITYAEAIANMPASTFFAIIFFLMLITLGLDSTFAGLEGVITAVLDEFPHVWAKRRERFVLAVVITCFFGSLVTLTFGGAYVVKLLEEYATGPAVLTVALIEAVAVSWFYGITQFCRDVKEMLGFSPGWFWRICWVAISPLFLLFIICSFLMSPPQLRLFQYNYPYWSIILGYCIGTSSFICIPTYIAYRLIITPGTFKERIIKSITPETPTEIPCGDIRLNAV
Sequence of hDAT (Q01959 whole entry): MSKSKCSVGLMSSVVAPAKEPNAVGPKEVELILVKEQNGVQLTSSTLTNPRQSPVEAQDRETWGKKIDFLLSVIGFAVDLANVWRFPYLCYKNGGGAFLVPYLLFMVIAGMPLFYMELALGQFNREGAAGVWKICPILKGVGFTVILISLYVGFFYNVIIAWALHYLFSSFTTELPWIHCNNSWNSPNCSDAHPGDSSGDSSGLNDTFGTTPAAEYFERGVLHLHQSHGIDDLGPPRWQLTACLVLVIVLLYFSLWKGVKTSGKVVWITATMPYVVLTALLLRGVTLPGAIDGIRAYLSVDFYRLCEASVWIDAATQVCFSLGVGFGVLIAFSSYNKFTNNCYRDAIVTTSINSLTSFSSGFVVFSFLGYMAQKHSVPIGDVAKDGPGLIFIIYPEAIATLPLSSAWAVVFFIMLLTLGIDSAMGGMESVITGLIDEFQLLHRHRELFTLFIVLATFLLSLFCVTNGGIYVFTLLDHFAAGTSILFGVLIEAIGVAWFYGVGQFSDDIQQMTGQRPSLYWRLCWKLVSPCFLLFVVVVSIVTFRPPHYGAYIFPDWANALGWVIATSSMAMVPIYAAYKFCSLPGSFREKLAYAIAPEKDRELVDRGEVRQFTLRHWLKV

With `CN1CC(N(Cc2ccc(F)cc2)C(=O)CN2C(=O)N[C@]3(C[C@@H](F)c4cc(-c5cnn(C)c5)ccc43)C2=O)(C(F)(F)F)C1` [Example 10, 2-[(1′S,3′R)-3′-fluoro-5′-(1-methyl-1H-pyrazol-4-yl)-2,5-dioxo-2′,3′-dihydrospiro[imidazolidine-4,1′-inden]-1-yl]-N-[(4-fluorophenyl)methyl]-N-[1-methyl-3-(trifluoromethyl)azetidin-3-yl]acetamide], the figures for the IC50 in the data set on Kuramochi cells and in the data set on RMGI cells were 66 nM and 6 nM, respectively. Besides, the solubility in the data set “Solubility test” (setting [2]) was 1600 µg/mL (≈ 2.66 mM); in the data set “Solubility test” (setting [3]), more than 10000 µg/mL. Besides, the Papp at 4 h in data set [1] (setting [4]) turned out to be 23.9 ×10⁻⁶ cm/s; in data set [1] (setting [5]), 28.6 ×10⁻⁶ cm/s. In addition, in the data set with G-401 xenograft, the “antitumor effect (in words)” value was “strong antitumor effects”. In the data set with G-401 xenograft (10 mg/kg), this compound had a T/C of 73%. The inhibition at 10 µM on hDAT is 6%; on hSERT it was -5%.
Take `CN1CC(N(Cc2ccc(F)cn2)C(=O)CN2C(=O)N[C@]3(C[C@@H](F)c4cc(-c5cnn(C6COC6)c5)ccc43)C2=O)(C(F)(F)F)C1` [Example 24, 2-{(1′S,3′R)-3′-fluoro-5′-[1-(oxetan-3-yl)-1H-pyrazol-4-yl]-2,5-dioxo-2′,3′-dihydrospiro[imidazolidine-4,1′-inden]-1-yl}-N-[(5-fluoropyridin-2-yl)methyl]-N-[1-methyl-3-(trifluoromethyl)azetidin-3-yl]acetamide]: the results for the IC50 in the data set with Kuramochi cells and with RMGI cells were 399 nM and 37 nM, respectively. Also, the solubility in the data set “Solubility test” (setting [2]) and in “Solubility test” (setting [3]) was more than 10000 µg/mL throughout. For the same compound, the Papp at 4 h in data set [1] (setting [4]) is 1.6 ×10⁻⁶ cm/s; in data set [1] (setting [5]) it was 8.2 ×10⁻⁶ cm/s. In the data set on G-401 xenograft, the “antitumor effect (in words)” value was “strong antitumor effects”. Moreover, in the data set with G-401 xenograft (20 mg/kg), the T/C is reported as 44%. In addition, the values for the inhibition at 10 µM on hDAT and at hSERT were 6% and 15%, respectively.
With `O=C1N[C@]2(C[C@@H](F)c3cc(-c4cnn(C5CN(C6COC6)C5)c4)ccc32)C(=O)N1CC(=O)N(Cc1ccc(F)cn1)C1(C(F)(F)F)COC1` [Example 7, 2-[(1′S,3′R)-3′-fluoro-5′-{1-[1-(oxetan-3-yl)azetidin-3-yl]-1H-pyrazol-4-yl}-2,5-dioxo-2′,3′-dihydrospiro[imidazolidine-4,1′-inden]-1-yl]-N-[(5-fluoropyridin-2-yl)methyl]-N-[3-(trifluoromethyl)oxetan-3-yl]acetamide], the IC50 came to 298 nM with Kuramochi cells and 35 nM in the data set on RMGI cells. Further, the figures for the solubility in “Solubility test” (setting [2]) and in “Solubility test” (setting [3]) were 4600 µg/mL (≈ 6.69 mM) and more than 10000 µg/mL, respectively. Besides, the Papp at 4 h is 3 ×10⁻⁶ cm/s in data set [1] (setting [4]) and 5.1 ×10⁻⁶ cm/s in data set [1] (setting [5]). Also, the “antitumor effect (in words)” value in the data set with G-401 xenograft is reported as “strong antitumor effects”. The T/C in the data set on G-401 xenograft (20 mg/kg) is 40%. Moreover, the inhibition at 10 µM at hDAT was 7%; at hSERT it was -1%.
On to `CN1CC(N(Cc2ccc(F)cn2)C(=O)CN2C(=O)N[C@]3(C[C@@H](F)c4cc(-c5cnn(C)c5)ccc43)C2=O)(C(F)(F)F)C1` [Example 20, 2-[(1′S,3′R)-3′-fluoro-5′-(1-methyl-1H-pyrazol-4-yl)-2,5-dioxo-2′,3′-dihydrospiro[imidazolidine-4,1′-inden]-1-yl]-N-[(5-fluoropyridin-2-yl)methyl]-N-[1-methyl-3-(trifluoromethyl)azetidin-3-yl]acetamide], for which the IC50 with Kuramochi cells was 320 nM; with RMGI cells it was 43 nM. The solubility in “Solubility test” (setting [2]) was 8600 µg/mL (≈ 14.2 mM); in the data set “Solubility test” (setting [3]), more than 10000 µg/mL. Further, the Papp at 4 h came out at 7.8 ×10⁻⁶ cm/s in data set [1] (setting [4]) and 21.9 ×10⁻⁶ cm/s in data set [1] (setting [5]). For the same compound, the “antitumor effect (in words)” value in the data set with G-401 xenograft is “strong antitumor effects”. Further, the T/C with G-401 xenograft (10 mg/kg) was found to be 53%. For the same compound, the inhibition at 10 µM is 46% on hDAT and -1% at hSERT.
As for `O=C1N[C@]2(C[C@@H](F)c3cc(-c4cnn(C5CCN(C6COC6)CC5)c4)ccc32)C(=O)N1CC(=O)N(Cc1ccc(F)cn1)C1(C(F)(F)F)COC1` [Example 23, 2-[(1′S,3′R)-3′-fluoro-5′-{1-[1-(oxetan-3-yl)piperidin-4-yl]-1H-pyrazol-4-yl}-2,5-dioxo-2′,3′-dihydrospiro[imidazolidine-4,1′-inden]-1-yl]-N-[(5-fluoropyridin-2-yl)methyl]-N-[3-(trifluoromethyl)oxetan-3-yl]acetamide], the IC50 in the data set with Kuramochi cells came out at 591 nM; in the data set on RMGI cells it was 54 nM. In addition, the solubility in the data set “Solubility test” (setting [2]) is 8600 µg/mL (≈ 12 mM); in the data set “Solubility test” (setting [3]), more than 10000 µg/mL. Besides, the Papp at 4 h in data set [1] (setting [4]) came out at 3.2 ×10⁻⁶ cm/s; in data set [1] (setting [5]) it was 7 ×10⁻⁶ cm/s. Moreover, the “antitumor effect (in words)” value in the data set with G-401 xenograft is “strong antitumor effects”. The compound also returned a T/C with G-401 xenograft (20 mg/kg) of 54%. In addition, the inhibition at 10 µM at hDAT amounted to 7%; on hSERT, 3%.

The values are drawn from US20250257055A1, “TERTIARY AMIDE DERIVATIVES SUBSTITUTED WITH 4-MEMBERED RING STRUCTURE” (Sumitomo Pharma Co., Ltd., priority 2024, published 2025).
